SMILES strings stand for the structures.

The results in this text go back to patent publication US12678438B2, “Treatment of cancer with CDK inhibitors” (THE TRUSTEES OF THE UNIVERSITY OF PENNSYLVANIA, priority 2019, dated 2026).

One experiment has as its system AR-dependent PCa lines. Nature of the experiment: Cell viability assay (Cell-Titer GLO), GI50. It is filed as cell-based. As to conditions: Homo sapiens; five AR-dependent PCa lines, 96 h incubation. As for the experimental part: (§1) Cell viability assays were performed by seeding the cells in 96-well plates at 2500-10000 cells/well (optimum density for growth) in a total volume of 100 μL complete media. Serially diluted compounds/drugs in 100 μL media were added to the cells 24 h post seeding. Following 96 h incubation, cell viability was assessed by Cell-Titer GLO (Promega, PR G7571). The measurements were normalized and regression curves were fitted to calculate GI50 using GraphPad Prism software.

Another experiment has as its system AR-negative cells. Put plainly: Cell viability assay (Cell-Titer GLO), GI50. Format: cell-based. As to conditions: Homo sapiens; three AR-negative cells, 96 h incubation. As for the experimental part:
as §1

The next experiment relates to p-MED1 (p-T1457 MED1). Put plainly: Immunoblot of p-MED1 in AR negative RWPE and DU145 cells. Format: cell-based, human. As to conditions: RWPE and DU145, highest tested concentration. The protocol: Cell lysates were prepared with RIPA buffer (Boston Bioproducts, BP-115DG)-10 mM Tris-HCl pH 7.5, 1 mM EDTA, 400 mM NaCl, 0.5% NP-40 and 1 mM DTT, supplemented with protease inhibitor cocktail (Pierce, A32965) and phosphatase inhibitor (Thermo, 1861280). For immunoblotting 200 μg total protein extract was boiled in sample buffer and 15-25 μg aliquots were separated by SDS-PAGE and transferred onto Polyvinylidene Difluoride membrane (GE Healthcare, IPVH00010). The membrane was incubated for one hour in blocking buffer [Tris-buffered saline, 0.1% Tween (TBS-T), 5% nonfat dry milk followed by overnight incubation on a rocker at 4° C. with the primary antibody. Following a wash with TBS-T, the blot was incubated with horseradish peroxidase-conjugated secondary antibody for 2 hrs on a rocker at room temperature. The blots were washed again and signals were visualized using enhanced chemiluminescence system as per manufacturer's protocol (GE Healthcare) or Kwik Quant Imager (Kindle Biosciences). […]
On the technique in general: In western blotting, separated proteins are transferred to a membrane and probed.

For a further experiment, the system named is MED1-AR complex. Nature of the experiment: Immunoprecipitation of endogenous MED1-AR complex. It is filed as cell-based, human. The conditions noted are these: VCaP and LNCaP nuclear extracts, 100 nM THZ1, 6 h. As for the experimental part:
For endogenous immunoprecipitation experiments, nuclear extracts were obtained from VCaP and LNCaP cells using NE-PER nuclear extraction kit (Thermo Scientific, 78835). Nuclear pellet was then lysed in IP buffer (20 mM Tris pH7.5, 150 mM NaCl, 1% Triton-X 100, Protease/Phosphatase Inhibitor) by sonication. Nuclear lysates (0.35-1.0 mg) were pre-cleaned by incubation with protein G Dynabeads (Life Technologies) for 1 h on a rotator at 4° C. 5 μg antibody was added to the pre-cleared lysates and incubated on a rotator at 4° C. overnight. Protein G Dynabeads were then added for 1 h. Beads were washed twice in IP buffer, containing 300 mM NaCl, and resuspended in 40 μL of 2× loading buffer and boiled at 95° C. for […] for separation of the protein and beads. Samples were then analyzed by SDS-PAGE and western blotting as described above.

For `CN(C)C/C=C/C(=O)Nc1ccc(C(=O)Nc2cccc(Nc3ncc(Cl)c(-c4c[nH]c5ccccc45)n3)c2)cc1` [THZ1], the values for the GI50 with AR-dependent PCa lines and in the experiment with AR-negative cells were 50 to 170 nM and 400 to 600 nM, respectively. Also, the “p-MED1 or pS5-PolII levels” value with p-MED1 (p-T1457 MED1) is “no such decrease in p-MED1 or pS5-PolII levels”. In the experiment with MED1-AR complex, the “endogenous MED1-AR complex formation” value was “loss of endogenous MED1-AR complex formation”.
